Experimental data from patent publication US8148391B2 (Cephalon, Inc., priority 2006, dated 2012).
Read-outs that look alike come from different tables or passages of the source. One block for each molecule: values may come before it.

Tests used:
[1] = target: T1, baculovirus-expressed ALK (Homo sapiens, UniProt Q9UM73); assay: ALK Kinase Assay (ELISA-type, time-resolved fluorescence); format: biochemical
T1 construct: host or cells: baculovirus expression system
Procedure, shortened: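 Plates coated with phospholipase C-γ substrate (10 μg/mL in TBS); reaction started with 30 ng/ml ALK and run 15 min at 37° C. Phosphorylated substrate detected with Eu-N1-labeled PT66 antibody. IC50 from sigmoidal variable-slope fit of percent inhibition vs log concentration.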

[2] = target: T2, c-Met (cytoplasmic domain) (Homo sapiens, UniProt P08581); assay: c-Met Kinase Assay (same methods as for ALK, with modifications); format: biochemical
T2 construct: 10 ng/mL c-Met (cytoplasmic domain, Invitrogen Corporation #PV3143); purchased Invitrogen Corporation PV3143
T2 sequence (P08581 956-1390 limits assumed): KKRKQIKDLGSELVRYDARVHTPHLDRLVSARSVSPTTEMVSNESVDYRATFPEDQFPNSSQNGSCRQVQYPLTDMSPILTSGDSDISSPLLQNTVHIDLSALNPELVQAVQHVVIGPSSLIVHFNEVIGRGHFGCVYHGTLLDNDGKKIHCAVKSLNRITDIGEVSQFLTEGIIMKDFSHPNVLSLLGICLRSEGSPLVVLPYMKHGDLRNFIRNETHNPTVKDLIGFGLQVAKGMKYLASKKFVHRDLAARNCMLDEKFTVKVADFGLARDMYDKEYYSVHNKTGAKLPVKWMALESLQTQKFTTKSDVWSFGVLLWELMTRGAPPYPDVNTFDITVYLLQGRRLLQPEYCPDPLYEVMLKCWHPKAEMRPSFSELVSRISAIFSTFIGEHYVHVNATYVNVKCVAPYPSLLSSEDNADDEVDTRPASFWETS
Procedure, shortened: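 Europium-labeled PT66 antibody (Eu-N1) detects substrate phosphorylation on wells coated with phospholipase C-γ at 10 μg/mL. The kinase, the cytoplasmic domain of c-Met at 10 ng/mL, starts the reaction, which proceeds 15 minutes at 37° C.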

[3] = ALK kinase inhibition, 1 μM ATP (Km level), read-out: ALK Activity
[4] = c-Met kinase inhibition, 1 μM ATP (Km level), read-out: cMet Activity
[5] = 1 μM ATP (Km level), read-out: ALK Activity (ALK Kinase Inhibition, IC50)
[6] = 1 μM ATP (Km level), read-out: cMet Activity (c-Met Kinase Inhibition, IC50)
[7] = ALK kinase inhibition, 1 μM ATP, read-out: ALK Activity
[8] = c-Met kinase inhibition, 1 μM ATP, read-out: cMet Activity
[9] = 1 μM ATP (Km level), 30 ng/ml ALK, 37° C., 15 minutes, read-out: ALK Activity (ALK kinase inhibition, IC50 class)
[10] = 1 μM ATP (Km level), 10 ng/mL c-Met, read-out: cMet Activity (c-Met kinase inhibition, IC50 class)

T1 sequence (Q9UM73 19-1620): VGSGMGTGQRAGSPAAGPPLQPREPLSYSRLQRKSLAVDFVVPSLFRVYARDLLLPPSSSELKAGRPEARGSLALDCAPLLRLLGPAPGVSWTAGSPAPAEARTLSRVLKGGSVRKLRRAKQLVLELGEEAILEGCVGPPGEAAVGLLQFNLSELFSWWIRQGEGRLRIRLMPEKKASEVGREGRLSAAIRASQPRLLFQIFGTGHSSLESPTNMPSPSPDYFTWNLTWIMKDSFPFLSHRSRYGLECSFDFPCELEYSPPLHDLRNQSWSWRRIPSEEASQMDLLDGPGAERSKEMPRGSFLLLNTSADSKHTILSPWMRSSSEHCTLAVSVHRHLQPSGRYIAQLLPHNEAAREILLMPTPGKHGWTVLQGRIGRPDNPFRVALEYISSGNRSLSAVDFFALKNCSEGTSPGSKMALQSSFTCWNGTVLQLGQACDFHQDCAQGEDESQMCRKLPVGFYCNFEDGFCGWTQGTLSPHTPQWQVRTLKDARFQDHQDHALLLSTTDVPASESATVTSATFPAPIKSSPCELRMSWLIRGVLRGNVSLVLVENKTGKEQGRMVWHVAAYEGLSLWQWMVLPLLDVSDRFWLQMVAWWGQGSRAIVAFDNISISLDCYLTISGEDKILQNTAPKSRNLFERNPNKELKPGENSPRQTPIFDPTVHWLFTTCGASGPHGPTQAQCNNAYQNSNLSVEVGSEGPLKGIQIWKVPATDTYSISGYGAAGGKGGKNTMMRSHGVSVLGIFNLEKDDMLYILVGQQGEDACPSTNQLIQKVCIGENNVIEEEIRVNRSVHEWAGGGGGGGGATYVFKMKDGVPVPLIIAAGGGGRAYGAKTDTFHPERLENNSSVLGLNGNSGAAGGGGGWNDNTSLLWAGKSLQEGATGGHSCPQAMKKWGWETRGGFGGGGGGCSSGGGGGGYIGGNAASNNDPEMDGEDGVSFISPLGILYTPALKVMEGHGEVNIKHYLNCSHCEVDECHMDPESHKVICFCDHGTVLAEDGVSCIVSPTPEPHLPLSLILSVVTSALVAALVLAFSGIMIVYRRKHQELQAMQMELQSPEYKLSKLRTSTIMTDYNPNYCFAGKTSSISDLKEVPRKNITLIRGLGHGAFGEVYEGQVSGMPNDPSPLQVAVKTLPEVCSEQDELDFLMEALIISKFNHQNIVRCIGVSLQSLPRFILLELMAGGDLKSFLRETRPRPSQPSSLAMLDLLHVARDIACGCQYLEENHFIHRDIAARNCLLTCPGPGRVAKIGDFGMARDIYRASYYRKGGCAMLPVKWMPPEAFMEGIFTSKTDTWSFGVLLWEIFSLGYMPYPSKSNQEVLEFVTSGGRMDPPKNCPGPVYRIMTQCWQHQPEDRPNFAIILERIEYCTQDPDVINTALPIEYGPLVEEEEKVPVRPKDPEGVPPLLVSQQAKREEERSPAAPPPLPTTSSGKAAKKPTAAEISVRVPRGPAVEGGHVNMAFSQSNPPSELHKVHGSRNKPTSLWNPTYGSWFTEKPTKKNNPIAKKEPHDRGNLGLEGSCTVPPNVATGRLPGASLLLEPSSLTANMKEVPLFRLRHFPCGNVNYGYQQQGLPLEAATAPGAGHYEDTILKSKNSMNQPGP

SMILES: COc1c(Nc2ncc(Cl)c(N[C@H]3[C@@H](C(N)=O)[C@@H]4C=C[C@H]3C4)n2)ccc2c1CCCC(N1CCOCC1)C2 (single isomer, unassigned) [Example 940]
IC50 [1, 5]: < 100 nM | IC50 ([2]; cMet Activity (c-Met Kinase Inhibition, IC50), 1 μM ATP (Km level)): > 10000 nM

SMILES: CCN1C(=O)CCCc2c1ccc(Nc1ncc(Cl)c(N[C@@H]3CCCC[C@H]3N(C)S(C)(=O)=O)n1)c2OC [Example 1679, N-{(1R,2R)-2-[5-Chloro-2-(1-ethyl-6-methoxy-2-oxo-2,3,4,5-tetrahydro-1H-benzo[b]azepin-7-ylamino)-pyrimidin-4-ylamino]-cyclohexyl}-N-methyl-methanesulfonamide]
IC50 [1, 7]: 100 to 1000 nM | IC50 [2, 8]: > 10000 nM

SMILES: COc1c(Nc2ncc(Cl)c(N[C@H]3[C@@H](C(N)=O)[C@@H]4C=C[C@H]3C4)n2)ccc2c1CC(N1CCOCC1)CCC2 (mixture of isomers) [Example 1204, (1S,2S,3R,4R)-3-[5-Chloro-2-(1-methoxy-8-morpholin-4-yl-6,7,8,9-tetrahydro-5H-benzocyclohepten-2-ylamino)-pyrimidin-4-ylamino]-bicyclo[2.2.1]hept-5-ene-2-carboxylic acid amide]
IC50 [1, 9]: < 100 nM | IC50 ([2]; cMet Activity (c-Met kinase inhibition, IC50 class), 1 μM ATP (Km level), 10 ng/mL c-Met): > 10000 nM

SMILES: CCN1CCCOc2cc(Nc3ncc(Cl)c(N[C@@H]4CCCC[C@H]4NS(C)(=O)=O)n3)ccc21 [Example 1693, N-{(1R,2R)-2-[5-Chloro-2-(9-ethyl-6,7,8,9-tetrahydro-5-oxa-9-aza-benzocyclohepten-3-ylamino)-pyrimidin-4-ylamino]-cyclohexyl}-methanesulfonamide]
IC50 [1, 7]: < 100 nM | IC50 [2, 8]: 100 to 1000 nM

SMILES: CNC(=O)c1ccccc1Nc1nc(Nc2ccc3c(c2)C2CCC(C3)N2S(C)(=O)=O)ncc1Cl (racemic) [Example 102, (+/−)-2-[5-Chloro-2-(12-methanesulfonyl-12-aza-tricyclo[7.2.1.0*2,7*]dodeca-2(7),3,5-trien-4-ylamino)-pyrimidin-4-ylamino]-N-methyl-benzamide]
IC50 [1, 3]: < 100 nM | IC50 [2, 4]: < 100 nM

SMILES: CNC(=O)c1ccccc1Nc1nc(Nc2ccc3c(c2)C2CCC(C3)N2CCOC)ncc1Cl (stereo not shown) [Example 68, 2-{5-Chloro-2-[12-(2-methoxy-ethyl)-12-aza-tricyclo[7.2.1.0*2,7*]dodeca-2(7),3,5-trien-4-ylamino]-pyrimidin-4-ylamino}-N-methyl-benzamide]
IC50 [1, 3]: < 100 nM | IC50 [2, 4]: < 100 nM

SMILES: CNC(=O)c1ccccc1Nc1nc(Nc2ccc3c(c2)C2CCC3CN(C(C)C)C2)ncc1Cl (stereo not shown) [Example 273, 2-[5-Chloro-2-(10-isopropyl-10-aza-tricyclo[6.3.2.0*2,7*]trideca-2,4,6-trien-4-ylamino)-pyrimidin-4-ylamino]-N-methyl-benzamide]
IC50 [1, 3]: < 100 nM | IC50 [2, 4]: < 100 nM

SMILES: Cc1nnc(-c2ccccc2Nc2nc(Nc3ccc4c(c3)C(C)(C)CCC(=O)N4)ncc2Cl)s1 [Example 973, 7-{5-Chloro-4-[2-(5-methyl-[1,3,4]thiadiazol-2-yl)-phenylamino]-pyrimidin-2-ylamino}-5,5-dimethyl-1,3,4,5-tetrahydro-benzo[b]azepin-2-one]
IC50 [1, 5]: 100 to 1000 nM | IC50 [2, 6]: 1000 to 10000 nM

SMILES: CNC(=O)[C@@H]1CCC[C@@H]1Nc1nc(Nc2cc3c(cc2OC)CCN(CC(=O)N(C)C)CC3)ncc1Cl (relative stereo) [Example 375, cis-2-[5-Chloro-2-(3-dimethylcarbamoylmethyl-8-methoxy-2,3,4,5-tetrahydro-1H-benzo[d]azepin-7-ylamino)-pyrimidin-4-ylamino]-cyclopentanecarboxylic acid methylamide]
IC50 [1, 3]: < 100 nM | IC50 [2, 4]: > 10000 nM

SMILES: COCCN1CCc2cc(Nc3ncc(Cl)c(Nc4ccccc4S(=O)(=O)N4CC[C@H](C)C4)n3)c(OC)cc2CC1 [Example 854, 5-Chloro-N(2)-[8-methoxy-3-(2-methoxy-ethyl)-2,3,4,5-tetrahydro-1H-benzo[d]azepin-7-yl]-N(4)-[2-((S)-3-methyl-pyrrolidine-1-sulfonyl)-phenyl]-pyrimidine-2,4-diamine]
IC50 [1, 5]: < 100 nM | IC50 [2, 6]: 100 to 1000 nM

SMILES: CC1(C)CCC(=O)Nc2cc(Nc3ncc(Cl)c(N[C@H]4[C@@H](C(N)=O)[C@@H]5C=C[C@H]4C5)n3)ccc21 [Example 1236, (1S,2S,3R,4R)-3-[5-Chloro-2-(5,5-dimethyl-2-oxo-2,3,4,5-tetrahydro-1H-1-benzazepin-8-ylamino)-pyrimidin-4-ylamino]-bicyclo[2.2.1]hept-5-ene-2-carboxylic acid amide]
IC50 [1, 9]: < 100 nM | IC50 [2, 10]: < 100 nM

The remaining lines, values ahead:

IC50 [1, 3]: < 100 nM | IC50 [2, 4]: < 100 nM
SMILES: CNC(=O)c1ccccc1Nc1nc(Nc2ccc3c(c2)CCN(C[C@H](O)C(F)(F)F)CC3)ncc1Cl [Example 328, 2-{5-Chloro-2-[3-((S)-3,3,3-trifluoro-2-hydroxy-propyl)-2,3,4,5-tetrahydro-1H-benzo[d]azepin-7-ylamino]-pyrimidin-4-ylamino}-N-methyl-benzamide]

IC50 [1, 5]: < 100 nM | IC50 [2, 6]: 100 to 1000 nM
SMILES: CCN1CCN(CC)c2cc(Nc3ncc(Cl)c(Nc4ccccc4OCC#N)n3)ccc2C1 [Example 731, {2-[5-Chloro-2-(1,4-diethyl-2,3,4,5-tetrahydro-1H-benzo[e][1,4]diazepin-8-ylamino)-pyrimidin-4-ylamino]-phenoxy}-acetonitrile]

IC50 [1, 3]: < 100 nM | IC50 [2, 4]: 100 to 1000 nM
SMILES: CCN1CCN(CC)c2cc(Nc3ncc(Cl)c(Nc4ccccc4NS(C)(=O)=O)n3)ccc2C1 [Example 425, N-{2-[5-Chloro-2-(1,4-diethyl-2,3,4,5-tetrahydro-1H-benzo[e][1,4]diazepin-8-ylamino)-pyrimidin-4-ylamino]-phenyl}-methanesulfonamide]

IC50 [1, 7]: 1000 to 10000 nM | IC50 [2, 8]: < 100 nM
SMILES: O=C1Cc2ccc(Nc3ncc(Cl)c(Nc4ccccc4-n4cccn4)n3)cc2CCN1 [Example 1813, 7-[5-Chloro-4-(2-pyrazol-1-yl-phenylamino)-pyrimidin-2-ylamino]-1,3,4,5-tetrahydro-benzo[d]azepin-2-one]

IC50 [1, 9]: < 100 nM | IC50 [2, 10]: > 10000 nM
SMILES: COCCN1CCc2cc(Nc3ncc(Cl)c(Nc4ccccc4-n4cccn4)n3)c(OC)cc2CC1 [Example 1321, 5-Chloro-N*2*-[8-methoxy-3-(2-methoxy-ethyl)-2,3,4,5-tetrahydro-1H-benzo[d]azepin-7-yl]-N*4*-(2-pyrazol-1-yl-phenyl)-pyrimidine-2,4-diamine]

IC50 [1, 5]: < 100 nM | IC50 [2, 6]: 100 to 1000 nM
SMILES: COCCN1CCc2ccc(Nc3ncc(Cl)c(Nc4ccccc4-c4ncccc4OC)n3)cc2CC1 [Example 990, 5-Chloro-N*2*-[3-(2-methoxy-ethyl)-2,3,4,5-tetrahydro-1H-benzo[d]azepin-7-yl]-N*4*-[2-(3-methoxy-pyridin-2-yl)-phenyl]-pyrimidine-2,4-diamine]

IC50 [1, 5]: < 100 nM | IC50 [2, 6]: 1000 to 10000 nM
SMILES: CCN1CCN(CC)c2cc(Nc3ncc(Cl)c(Nc4ccc5c(c4)CN(CCOC)CCS5)n3)ccc2C1 [Example 733, 5-Chloro-N(2)-(1,4-diethyl-2,3,4,5-tetrahydro-1H-benzo[e][1,4]diazepin-8-yl)-N(4)-[8-(2-methoxy-ethyl)-6,7,8,9-tetrahydro-5-thia-8-aza-benzocyclohepten-2-yl]-pyrimidine-2,4-diamine]

IC50 [1, 5]: < 100 nM | IC50 [2, 6]: 100 to 1000 nM
SMILES: CCN1CCN(CC)c2cc(Nc3ncc(Cl)c(Nc4ccccc4-n4cccn4)n3)ccc2C1 [Example 725, 5-Chloro-N(2)-(1,4-diethyl-2,3,4,5-tetrahydro-1H-benzo[e][1,4]diazepin-8-yl)-N(4)-(2-pyrazol-1-yl-phenyl)-pyrimidine-2,4-diamine]

IC50 [1, 5]: < 100 nM | IC50 [2, 6]: < 100 nM
SMILES: CNC(=O)c1ccccc1Nc1nc(Nc2ccc3c(c2)NC(=O)CCC3)ncc1Cl [Example 513, 2-[5-Chloro-2-(2-oxo-2,3,4,5-tetrahydro-1H-benzo[b]azepin-8-ylamino)-pyrimidin-4-ylamino]-N-methyl benzamide]

IC50 [1, 7]: < 100 nM | IC50 [2, 8]: 100 to 1000 nM
SMILES: CCN1CC(O)(CO)COc2ccc(Nc3ncc(Cl)c(Nc4c(F)cccc4C(=O)NC)n3)cc21 (stereo not shown) [Example 1720, 2-[5-Chloro-2-(9-ethyl-7-hydroxy-7-hydroxymethyl-6,7,8,9-tetrahydro-5-oxa-9-aza-benzocyclohepten-2-ylamino)-pyrimidin-4-ylamino]-3-fluoro-N-methyl-benzamide]

IC50 [1, 7]: 100 to 1000 nM | IC50 [2, 8]: < 100 nM
SMILES: CCN1CC(O)(CO)COc2cc(Nc3ncc(Cl)c(Nc4c(F)cccc4C(=O)NC)n3)ccc21 (stereo not shown) [Example 1736, 2-[5-Chloro-2-(9-ethyl-7-hydroxy-7-hydroxymethyl-6,7,8,9-tetrahydro-5-oxa-9-aza-benzocyclohepten-3-ylamino)-pyrimidin-4-ylamino]-3-fluoro-N-methyl-benzamide]

IC50 [1, 9]: < 100 nM | IC50 [2, 10]: 100 to 1000 nM
SMILES: CN1C(=O)CCC(C)(C)c2cc(Nc3ncc(Cl)c(Nc4ccccc4S(=O)(=O)N(C)C)n3)ccc21 [Example 1325, 2-[5-Chloro-2-(1,5,5-trimethyl-2-oxo-2,3,4,5-tetrahydro-1H-benzo[b]azepin-7-ylamino)-pyrimidin-4-ylamino]-N,N-dimethyl-benzenesulfonamide]
